# Laboratory results published in patent US12162890B2 (Novartis AG, priority 2015, dated 2024).
# Molecular target: HEK293 cells with stable expression of the GRIN1 gene and tetracycline-inducible expression of the GRIN2B gene (NMDA receptor, NR2B) (Homo sapiens, UniProt Q13224)
# Experiment: Fluo-8 Ca2+ flux assay: reversal of Ro 25-6981-mediated suppression of the Ca2+ response to co-agonist (glutamate/glycine); also: test concentration or dose not given here
# Assay type: cell-based
# Details: reversal of the Ro 25-6981 suppression of the Ca2+ response to co-agonist (glutamate/glycine)
# Chain of HEK293 cells with stable expression of the GRIN1 gene and tetracycline-inducible expression of the GRIN2B gene (NMDA receptor, NR2B) (Q13224 27-1484, other chains not shown): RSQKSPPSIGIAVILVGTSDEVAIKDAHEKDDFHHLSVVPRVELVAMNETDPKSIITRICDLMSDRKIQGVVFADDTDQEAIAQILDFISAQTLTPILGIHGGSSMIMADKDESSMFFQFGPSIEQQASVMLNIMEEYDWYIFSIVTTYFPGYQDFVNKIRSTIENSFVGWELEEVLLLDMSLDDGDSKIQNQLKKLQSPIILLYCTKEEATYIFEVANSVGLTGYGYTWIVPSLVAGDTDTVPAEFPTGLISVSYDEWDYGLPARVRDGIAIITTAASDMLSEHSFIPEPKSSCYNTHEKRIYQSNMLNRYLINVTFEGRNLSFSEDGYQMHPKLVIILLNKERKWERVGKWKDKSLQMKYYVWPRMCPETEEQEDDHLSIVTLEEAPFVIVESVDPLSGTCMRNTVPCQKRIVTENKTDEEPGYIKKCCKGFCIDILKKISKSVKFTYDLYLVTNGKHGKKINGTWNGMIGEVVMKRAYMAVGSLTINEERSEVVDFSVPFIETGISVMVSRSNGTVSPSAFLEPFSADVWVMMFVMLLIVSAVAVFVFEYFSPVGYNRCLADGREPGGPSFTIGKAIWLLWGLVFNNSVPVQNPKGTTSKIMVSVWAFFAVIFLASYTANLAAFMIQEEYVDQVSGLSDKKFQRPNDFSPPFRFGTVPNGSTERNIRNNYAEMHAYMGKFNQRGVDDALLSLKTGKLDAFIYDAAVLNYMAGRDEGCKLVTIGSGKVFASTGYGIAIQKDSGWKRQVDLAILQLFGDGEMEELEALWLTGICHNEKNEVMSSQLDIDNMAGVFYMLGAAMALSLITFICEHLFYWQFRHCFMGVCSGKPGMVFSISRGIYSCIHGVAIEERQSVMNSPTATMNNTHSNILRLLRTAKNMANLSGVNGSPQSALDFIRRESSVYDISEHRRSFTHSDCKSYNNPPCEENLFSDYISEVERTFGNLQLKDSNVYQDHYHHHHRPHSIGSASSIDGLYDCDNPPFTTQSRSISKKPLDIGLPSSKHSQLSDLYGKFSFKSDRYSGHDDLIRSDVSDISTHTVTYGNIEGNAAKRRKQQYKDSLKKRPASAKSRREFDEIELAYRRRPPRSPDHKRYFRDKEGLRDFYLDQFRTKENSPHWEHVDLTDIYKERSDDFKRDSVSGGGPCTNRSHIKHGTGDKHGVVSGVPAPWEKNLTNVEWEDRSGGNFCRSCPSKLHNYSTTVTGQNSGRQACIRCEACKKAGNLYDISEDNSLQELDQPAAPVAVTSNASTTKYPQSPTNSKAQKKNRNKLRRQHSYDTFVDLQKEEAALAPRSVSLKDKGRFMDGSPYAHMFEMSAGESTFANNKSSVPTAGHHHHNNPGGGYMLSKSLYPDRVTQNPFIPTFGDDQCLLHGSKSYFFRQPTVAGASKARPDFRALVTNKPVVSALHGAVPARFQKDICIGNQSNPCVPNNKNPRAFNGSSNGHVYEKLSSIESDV
row,Response Recovered (%),SMILES
1,−4.2%,"O=C(Cn1ccc2scc(-c3cnc(Cl)nc3)c2c1=O)N1CC(F)(CF)C1 [Example 142, 3-(2-chloropyrimidin-5-yl)-5-(2-(3-fluoro-3-(fluoromethyl)azetidin-1-yl)-2-oxoethyl)thieno[3,2-c]pyridin-4(5H)-one]"
2,68%,"CC1(F)CN(C(=O)Cn2ccn3cnc(-c4ccc(F)c(C(F)(F)F)c4)c3c2=O)C1 [Example 446, 1-(4-fluoro-3-(trifluoromethyl)phenyl)-7-(2-(3-fluoro-3-methylazetidin-1-yl)-2-oxoethyl)imidazo[1,5-a]pyrazin-8(7H)-one]"
3,99%,"O=C(Cn1ccc2scc(-c3ccc(F)c(C(F)(F)F)c3)c2c1=O)N1CCC(F)C1 (stereo not drawn) [Example 11, 3-(4-fluoro-3-(trifluoromethyl)phenyl)-5-(2-(3-fluoropyrrolidin-1-yl)-2-oxoethyl)thieno[3,2-c]pyridin-4(5H)-one]"
4,63%,"Cc1cn(CC(=O)N2CCCC2)c(=O)c2c(-c3ccc(F)c(C(F)(F)F)c3)csc12 [Example 107, 3-[4-fluoro-3-(trifluoromethyl)phenyl]-7-methyl-5-[2-oxo-2-(pyrrolidin-1-yl)ethyl]-4H,5H-thieno[3,2-c]pyridin-4-one]"
5,8%,"O=C(Cn1cnc2occ(-c3ccc(Cl)cc3)c2c1=O)N1CC(F)(F)C1 [Example 389, 5-(4-chlorophenyl)-3-(2-(3,3-difluoroazetidin-1-yl)-2-oxoethyl)furo[2,3-d]pyrimidin-4(3H)-one]"
6,58%,"O=C(Cn1ccn2ccc(-c3ccc(Cl)c(Cl)c3)c2c1=O)N1CCC(F)C1 (stereo not drawn) [Example 395, 8-(3,4-dichlorophenyl)-2-(2-(3-fluoropyrrolidin-1-yl)-2-oxoethyl)pyrrolo[1,2-a]pyrazin-1(2H)-one]"
7,130%,"CCC1(F)CN(C(=O)Cn2ccc3scc(-c4ccc(F)c(Cl)c4)c3c2=O)C1 [Example 52, 3-(3-chloro-4-fluorophenyl)-5-(2-(3-ethyl-3-fluoroazetidin-1-yl)-2-oxoethyl)thieno[3,2-c]pyridin-4(5H)-one]"
8,40%,"Cn1cc(-n2cc(-c3ccc(F)c(Cl)c3)c3c(=O)n(CC(=O)N4CCC(F)C4)ccc32)cn1 (stereo not drawn) [Example 235, 3-(3-chloro-4-fluorophenyl)-5-(2-(3-fluoropyrrolidin-1-yl)-2-oxoethyl)-1-(1-methyl-1H-pyrazol-4-yl)-1H-pyrrolo[3,2-c]pyridin-4(5H)-one]"
9,36%,"O=C(Cn1cnc2c(c(-c3ccc(Cl)c(F)c3)cn2C2CC2)c1=O)N1CCCC1 [Example 191, 5-(4-chloro-3-fluorophenyl)-7-cyclopropyl-3-(2-oxo-2-(pyrrolidin-1-yl)ethyl)-3H-pyrrolo[2,3-d]pyrimidin-4(7H)-one]"
10,60%,"O=C(Cn1ccc2scc(-c3ccc(F)c(Cl)c3)c2c1=O)N1CCCC1 [Example 3, 3-(3-chloro-4-fluorophenyl)-5-(2-oxo-2-(pyrrolidin-1-yl)ethyl)thieno[3,2-c]pyridin-4(5H)-one]"
11,63%,"O=C(Cn1ccc2scc(-c3ccc(F)c(Cl)c3)c2c1=O)N1CC(F)(C2CC2)C1 [Example 44, 3-(3-chloro-4-fluorophenyl)-5-(2-(3-cyclopropyl-3-fluoroazetidin-1-yl)-2-oxoethyl)thieno[3,2-c]pyridin-4(5H)-one]"
12,18%,"O=C(Cn1cnc2[nH]cc(-c3cnc(Cl)c(C(F)(F)F)c3)c2c1=O)N1CC(F)(F)C1 [Example 182, 5-(6-chloro-5-(trifluoromethyl)pyridin-3-yl)-3-(2-(3,3-difluoroazetidin-1-yl)-2-oxoethyl)-3H-pyrrolo[2,3-d]pyrimidin-4(7H)-one]"
13,61%,"CCC1(F)CN(C(=O)Cn2ccn3ccc(-c4cnc(Cl)c(Cl)c4)c3c2=O)C1 [Example 405, 8-(5,6-dichloropyridin-3-yl)-2-(2-(3-ethyl-3-fluoroazetidin-1-yl)-2-oxoethyl)pyrrolo[1,2-a]pyrazin-1(2H)-one]"
14,7.5%,"Cc1cn(CC(=O)N2CCC(F)C2)c(=O)n2c(-c3ccc(F)c(Cl)c3)cnc12 (stereo not drawn) [Example 452, 3-(3-chloro-4-fluorophenyl)-6-(2-(3-fluoropyrrolidin-1-yl)-2-oxoethyl)-8 methylimidazo[1,2-c]pyrimidin-5(6H)-one]"
15,44%,"O=C(Cn1ccc2c(c(-c3ccc(F)c(C(F)(F)F)c3)cn2-c2ccnnc2)c1=O)N1CCC(F)C1 (stereo not drawn) [Example 262, 3-(4-fluoro-3-(trifluoromethyl)-phenyl)-5-(2-(3-fluoropyrrolidin-1-yl)-2-oxoethyl)-1-(pyridazin-4-yl)-1H-pyrrolo[3,2-c]pyridin-4(5H)-one]"
16,2%,"O=C(Cn1cnc2csc(-c3ccc(Cl)cc3)c2c1=O)NC1CCC1 [Example 347, 2-(5-(4-chlorophenyl)-4-oxothieno[3,4-d]pyrimidin-3-(4H)-yl)-N-cyclobutylacetamide]"

row,Response Recovered (%),SMILES
1,15%,"CCC1(F)CN(C(=O)Cn2ccc3scc(-c4cnc(F)c(F)c4)c3c2=O)C1 [Example 143, 3-(5,6-difluoropyridin-3-yl)-5-(2-(3-ethyl-3-fluoroazetidin-1-yl)-2-oxoethyl)thieno[3,2-c]pyridin-4(5H)-one]"
2,25%,"Cn1cc(-c2ccc(Cl)c(F)c2)c2c(=O)n(CC(=O)N3CCCC3)cnc21 [Example 165, 5-(4-chloro-3-fluorophenyl)-7-methyl-3-(2-oxo-2-(pyrrolidin-1-yl)ethyl)-3H-pyrrolo[2,3-d]pyrimidin-4(7H)-one]"
3,110%,"CC1CN(C(=O)Cn2ccc3scc(-c4ccc(Cl)c(Cl)c4)c3c2=O)C1 [Example 59, 3-(3,4-dichlorophenyl)-5-(2-(3-methylazetidin-1-yl)-2-oxoethyl)thieno[3,2-c]pyridin-4(5H)-one]"
4,61%,"CN(C)Cc1cn(CC(=O)N2CCC(F)C2)c(=O)c2c(-c3ccc(F)c(Cl)c3)csc12 (stereo not drawn) [Example 120, 3-(3-chloro-4-fluorophenyl)-7-((dimelhylamino)methyl)-5-(2-(3-fluoropyrrolidin-1-yl)-2-oxoethyl)thieno[3,2-c]pyridin-4(5H)-one]"
5,39%,"O=C(Cn1cc(CO)c2scc(-c3ccc(F)c(Cl)c3)c2c1=O)N1CCC(F)C1 (stereo not drawn) [Example 129, 3-(3-chloro-4-fluorophenyl)-5-(2-(3-fluoropyrrolidin-1-yl)-2-oxoethyl)-7-(hydroxymethyl) thieno[3,2-c]pyridin-4(5H)-one]"
6,49%,"Cc1nnc(-n2cc(-c3ccc(F)c(Cl)c3)c3c(=O)n(CC(=O)N4CCC(F)C4)ccc32)o1 (stereo not drawn) [Example 264, 3-(3-chloro-4-fluorophenyl)-5-(2-(3-fluoropyrrolidin-1-yl)-2-oxoethyl)-1-(5-methyl-1,3,4-oxadiazol-2-yl)-1H-pyrrolo[3,2-c]pyridin-4(5H)-one]"
7,53%,"O=C(Cn1ccc2[nH]cc(-c3ccc(F)c(Cl)c3)c2c1=O)N1CCC(F)C1 (stereo not drawn) [Example 209, 3-(3-chloro-4-fluorophenyl)-5-(2-(3-fluoropyrrolidin-1-yl)-2-oxoethyl)-1H-pyrrolo[3,2-c]pyridin-4(5H)-one]"
8,20%,"O=C(Cn1nnc2scc(-c3ccc(Cl)c(C(F)(F)F)c3)c2c1=O)N1CCC(F)C1 (stereo not drawn) [Example 332, 5-(4-chloro-3-(trifluoromethyl)phenyl)-3-(2-(3-fluoropyrrolidin-1-yl)-2-oxoethyl)thieno[2,3-d][1,2,3]triazin-4(3H)-one]"
9,10%,"CC1(O)CN(C(=O)Cn2ccc3scc(-c4ccc(F)c(Cl)c4)c3c2=O)C1 [Example 58, 3-(3-chloro-4-fluorophenyl)-5-(2-(3-hydroxy-3-methylazetidin-1-yl)-2-oxoethyl)thieno[3,2-c]pyridin-4(5H)-one]"
10,23%,"O=C(Cn1ccc2scc(-c3ccc(F)c(Cl)c3)c2c1=O)N1CC(F)C1 [Example 47, 3-(3-chloro-4-fluorophenyl)-5-(2-(3-fluoroazetidin-1-yl)-2-oxoethyl)thieno[3,2-c]pyridin-4(5H)-one]"
11,3%,"O=C(Cn1ncc2scc(-c3ccc(Cl)c(F)c3)c2c1=O)N1CCCC1 [Example 336, 3-(4-chloro-3-fluorophenyl)-5-(2-oxo-2-(pyrrolidin-1-yl)ethyl)thieno[2,3-d]pyridazin-4(5H)-one]"
12,78%,"O=C(Cn1ccc2c(c(-c3ccc(Cl)c(Cl)c3)cn2-c2ccccn2)c1=O)N1CCC(F)C1 (stereo not drawn) [Example 229, 3-(3,4-dichlorophenyl)-5-(2-(3-fluoropyrrolidin-1-yl)-2-oxoethyl)-1-(pyridin-2-yl)-1H-pyrrolo[3,2-c]pyridin-4(5H)-one]"
13,8%,"O=C(Cn1nnc2scc(-c3ccc(Cl)c(C(F)(F)F)c3)c2c1=O)N1CCCC1 [Example 331, 5-[4-chloro-3-(trifluoromethyl)phenyl]-3-[2-oxo-2-(pyrrolidin-1-yl)ethyl]-3H,4H-thieno[2,3-d][1,2,3]triazin-4-one]"
14,1%,"O=C(Cn1cnc2ccn(-c3ccc(Cl)cc3)c2c1=O)N1CCOCC1 [Example 371, 5-(4-chlorophenyl)-3-(2-morpholino-2-oxoethyl)-3H-pyrrolo[3,2-d]pyrimidin-4(5H)-one]"
15,16%,"CCC1(F)CN(C(=O)Cn2ccc3scc(-c4cnc(Cl)c(C)c4)c3c2=O)C1 [Example 85, 3-(6-chloro-5-methylpyridin-3-yl)-5-(2-(3-ethyl-3-fluoroazetidin-1-yl)-2-oxoethyl)thieno[3,2-c]pyridin-4(5H)-one]"

row,SMILES,Response Recovered (%)
1,"O=C(Cn1cnc2[nH]nc(-c3ccc(Cl)c(C(F)(F)F)c3)c2c1=O)N1CCC(F)C1 (stereo not drawn) [Example 318, 3-(4-chloro-3-(trifluoromethyl)phenyl)-5-(2-(3-fluoropyrrolidin-1-yl)-2-oxoethyl)-1H-pyrazolo[3,4-d]pyrimidin-4(5H)-one]",26%
2,"O=C(Cn1cnc2cccc(-c3ccc(Cl)cc3)c2c1=O)N1CC(F)(F)C1 [Example 296, 5-(4-chlorophenyl)-3-(2-(3,3-difluoroazetidin-1-yl)-2-oxoethyl)quinazolin-4(3H)-one]",9%
